Results: paper PMC7792944, “Pharmacological Characterization of µ-Opioid Receptor Agonists with Biased G Protein or β-Arrestin Signaling, and Computational Study of Conformational Changes during Receptor Activation” (Molecules, 2020)
Values joined by “and” are separate entries in the source; they are usually repeats but may differ in a detail not shown here. Identical values can stand only once. Bridge positions count the residues as written; N and C are the ends. Square brackets hold non-standard residues; d marks the D form. Ends that are not written are not given here. Peptide text beside a SMILES is read from it. Phe(4-CF3) = N[C@@H](Cc1ccc(C(F)(F)F)cc1)C(=O)O; Dmt = Cc1cc(O)cc(C)c1C[C@H](N)C(=O)O

What was measured:
MOP [1] = target: MOP; design: method as in ref [44] (F-81), [45] (C-33); conditions: [3H]DAMGO, human opioid receptor membranes; ref [44] (F-81), [45] (C-33); cited from earlier work
KOP = target: KOP; design: method as in ref [44] (F-81), [45] (C-33); conditions: [3H]U-69593, human opioid receptor membranes; ref [44] (F-81), [45] (C-33); cited from earlier work
DPP IV = tested on: DPP IV; design: method as in ref [44] (F-81), [45] (C-33); conditions: ref [44] (F-81), [45] (C-33); cited from earlier work
[2] = design: method as in ref [44] (F-81), [45] (C-33); conditions: ref [44] (F-81), [45] (C-33); cited from earlier work
human recombinant MOP = conditions: cited from earlier work; for MOP pEC50 (CL95%): calcium signaling via chimeric G proteins, ref [44] (EM-2, DPDPE, Dyn A, F-81); for MOP pEC50 (CL95%) / MOP α±SEM: [45] (C-33); for MOP α±SEM: maximal effect, calcium signaling, ref [44]
human recombinant DOP = tested on: human recombinant DOP; design: method as in ref [44], [45] (C-33); conditions: ref [44], [45] (C-33), cited from earlier work; for DOP pEC50 (CL95%): calcium signaling via chimeric G proteins; for DOP α±SEM: maximal effect, calcium signaling
human recombinant KOP = tested on: human recombinant KOP; design: method as in ref [44], [45] (C-33); conditions: ref [44], [45] (C-33), cited from earlier work; for KOP pEC50 (CL95%): calcium signaling via chimeric G proteins; for KOP α±SEM: maximal effect, calcium signaling
MOP/G-protein = conditions: BRET, [45] (C-33), cited from earlier work; for MOP/G-protein α±SEM: maximal effect, ref [44]; for MOP/G-protein pEC50 (CL95%): ref [44] (EM-2, F-81)
MOP/β-arrestin 2 = conditions: cited from earlier work; for MOP/β-arrestin 2 pEC50 (CL95%): ref [44] (EM-2, F-81)
DOP = conditions: read-out: Ki DOP; [3H]deltorphin-2, human opioid receptor membranes; ref [44] (F-81), [45] (C-33); cited from earlier work
human MOP = target: T1, human MOP (Homo sapiens, UniProt P35372); test: [35S]GTPγS binding assay (G-protein activation) in CHO-hMOP cell membranes; format: biochemical; conditions: for %Stim: efficacy normalized to the maximum stimulation caused by EM-1
T1 construct: originator Prof L. Toll, SRI International; host or cells: CHO (CHO-hMOP), membranes
Procedure: Herein, for the first time the biased agonism of F-81 and C-33 is analyzed by [^35S]GTPγS binding assay (Table 1) and PathHunter enzyme complementation assay (Table 2). [^35S]GTPγS binding assay, which characterizes ligand-driven G protein activation, was performed in CHO cells stably expressing the human MOP [46, 47].
[^35S]GTPγS binding assay. CHO cells stably expressing the human MOP receptor (in brief, CHO-hMOP cells, provided by Prof G. Calo, University of Ferrara; originator was Prof L. Toll, SRI International, Menlo Park, CA, USA) were grown in Hams F12 containing streptomycin (100 μg/mL), fungizone 2.5 μg/mL), penicillin (100 IU/mL) and 10% fetal bovine serum (FBS). Stock medium containing G418 (200 μg/mL) was used to maintain CHO-hMOP expression. Experiments were performed according to the literature. Cell membranes (5–10 µg) were incubated at 30 °C with 0.05 nM [^35S]GTPγS (PekinElmer, 549 Albany St, Boston, MA 02118, US), 10 µM GDP and various concentrations of a tested peptide in the final volume of 1 mL, for 60 min. Non-specific binding was determined using 10 µM GTPγS, and the basal binding was determined in the absence of a tested peptide. Incubations were terminated by rapid filtration through the GF/B Whatman glass fiber strips and the bound radioactivity was measured in a liquid scintillation counter. Five independent experiments were carried out. The data were analyzed by a nonlinear least square regression analysis computer program Graph Pad PRISM 5.0 (GraphPad Software Inc., San Diego, CA, USA).

[3] = target: T2, CHO-K1 OPRM1 (μ-opioid receptor (MOP))/β-arrestin 2 (Homo sapiens, UniProt P35372); test: PathHunter enzyme complementation assay, β-arrestin 2 recruitment; format: cell-based; conditions: for EC50 / %Stim: CHO-K1 OPRM1 β-arrestin 2 cell line; for EC50: mean ± SEM, n = 5; for %Stim: normalized to the maximum stimulation caused by EM-1 (100%)
T2 construct: host or cells: CHO-K1 (CHO-K1 OPRM1 β-arrestin cell line)
Procedure: Since in most studies reported in the introduction, β-arrestin 2 was used, for easy comparison we decided to characterize this isoform, despite being the minority as compared to β-arrestin 1 in most cells, including neurons. The use of β-arrestin 2 is supported by its similarity in opioid receptor binding with β-arrestin 1 [37, 50].
Measurement of β-arrestin 2 recruitment. β-arrestin 2 recruitment at MOP was measured using the DiscoveRxPathHunter® β-arrestin kit (DiscoveRx, Fremont, CA, USA) according to manufacturer’s recommendations and previously published procedure. CHO cells were engineered to co-express the ProLink™ (PK) tagged GPCR (GPCR-PK) and the enzyme acceptor (EA) tagged β-arrestin 2 (β-arrestin-EA) (CHO-K1 OPRM1 β-arrestin cell line). Activation of the GPCR-PK induces β-arrestin-EA recruitment, forcing complementation of the two β-galactosidase enzyme fragments (EA and PK). The resulting functional enzyme hydrolyzes substrate to generate a chemiluminescent signal which was measured by luminometry. Briefly, 20 μL of PathHunter cells as taken from the kit were seeded in each well and incubated overnight at 37 °C. […] Detection Reagent Working Solution (12 μL) was added and incubation was continued for 60 min at rt. Chemiluminescent signal was read using a Viewlux imaging plate reader (PerkinElmer, Cambridge, MA, USA).

MOP [4] = tested on: MOP; design: method as in PMID 31351108; conditions: Gαi2 and GαoA; ref [43]; cited from earlier work

T1 sequence (P35372 whole entry): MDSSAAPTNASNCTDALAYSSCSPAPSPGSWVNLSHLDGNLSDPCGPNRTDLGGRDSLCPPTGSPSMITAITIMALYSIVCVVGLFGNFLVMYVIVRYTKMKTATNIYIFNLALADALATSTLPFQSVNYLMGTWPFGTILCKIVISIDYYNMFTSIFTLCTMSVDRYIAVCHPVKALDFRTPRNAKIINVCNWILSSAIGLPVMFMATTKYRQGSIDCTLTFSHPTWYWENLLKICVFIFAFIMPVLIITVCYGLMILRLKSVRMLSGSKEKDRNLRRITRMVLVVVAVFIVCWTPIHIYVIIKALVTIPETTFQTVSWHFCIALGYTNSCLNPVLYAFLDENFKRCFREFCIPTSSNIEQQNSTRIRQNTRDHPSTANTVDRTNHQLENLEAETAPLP
T2 sequence (P35372 whole entry): as above
T2 sequence (P32121 whole entry partner): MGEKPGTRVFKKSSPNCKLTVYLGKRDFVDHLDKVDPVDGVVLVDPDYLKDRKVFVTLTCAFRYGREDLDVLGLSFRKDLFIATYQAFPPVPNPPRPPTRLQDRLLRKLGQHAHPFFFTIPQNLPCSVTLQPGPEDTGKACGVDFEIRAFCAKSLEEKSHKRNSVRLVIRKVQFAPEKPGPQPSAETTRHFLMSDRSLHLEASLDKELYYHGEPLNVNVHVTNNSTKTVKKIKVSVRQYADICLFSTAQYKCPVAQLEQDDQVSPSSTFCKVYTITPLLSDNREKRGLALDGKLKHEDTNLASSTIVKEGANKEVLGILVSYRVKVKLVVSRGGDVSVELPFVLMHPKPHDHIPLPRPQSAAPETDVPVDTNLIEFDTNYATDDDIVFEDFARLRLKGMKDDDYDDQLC

| Molecule | Ki (MOP [1]) | Ki (KOP) | Enzymatic stability Area [%] 120 min DPP IV (DPP IV) | Enzymatic stability Area [%] 120 min Homogenate [2] | MOP pEC50 (CL95%) (human recombinant MOP) | MOP α±SEM (human recombinant MOP) | DOP pEC50 (CL95%) (human recombinant DOP) | KOP pEC50 (CL95%) (human recombinant KOP) | MOP/G-protein α±SEM (MOP/G-protein) | MOP/G-protein pEC50 (CL95%) (MOP/G-protein) | MOP/β-arrestin 2 pEC50 (CL95%) (MOP/β-arrestin 2; BRET, [45] (C-33)) | Ki (DOP) | DOP α±SEM (human recombinant DOP) | KOP α±SEM (human recombinant KOP) | EC50 (human MOP) | %Stim (human MOP; CHO-hMOP) | EC50 [3] | %Stim [3] | further results |
| --- | --- | --- | --- | --- | --- | --- | --- | --- | --- | --- | --- | --- | --- | --- | --- | --- | --- | --- | --- |
| Tyr-Pro-Phe-Phe-NH2 (YPFF-NH2) [EM-2, reference compound] | 2.5 ± 0.05 nM | > 1000 nM | 1.9±0.03% | 6.5±0.15% | 7.83 | 1.00 | inactive | inactive | 1.00 | 7.32 | 7.20 | > 1000 nM | – | – | – | – | – | – | MOP/β-arrestin 2 α±SEM (MOP/β-arrestin 2; BRET, maximal effect, ref [44], [45] (C-33)): 1.00; bias factor (CL95%) (MOP/β-arrestin 2; calculated by using EM-2 as a standard unbiased ligand, ref [44], [45] (C-33)): 0.00 |
| DPDPE | – | – | – | – | inactive | – | 7.33 | inactive | – | – | – | – | 1.00 | – | – | – | – | – | – |
| Dyn A: reference agonist in calcium mobilization assay (KOP) | – | – | – | – | 6.67 | 0.83±0.10 | 7.73 | – | – | – | – | – | 0.99±0.04 | 1.00 | – | – | – | – | – |
| Cc1cc(O)cc(C)c1C[C@H](N)C(=O)N[C@@H]1CCCCNC(=O)C[C@@H](C(N)=O)NC(=O)[C@H](Cc2ccccc2)NC1=O [C-33, Dmt-c[D-Lys-Phe-Asp]NH2] (H-[Dmt][dK]FD-NH2; lactam 2-4) | – | – | 91.1±4.21% | 89±2.27% | – | – | – | – | – | – | – | – | – | – | 0.0794 nM | 88 ± 3% | 2.51 nM | 156% and 156 ± 3 % | – |
| COc1ccsc1CNCC[C@]1(c2ccccn2)CCOC2(CCCC2)C1 [(S)-TRV130] | – | – | – | – | – | – | – | – | – | – | – | – | – | – | – | – | – | – | G protein activation, less potent compared to its (R)-isomer (MOP [4]): 90 fold |
| Cc1cc(O)cc(C)c1C[C@H](N)C(=O)N[C@@H]1CCCCNC(=O)C[C@@H](C(N)=O)NC(=O)[C@H](Cc2ccc(C(F)(F)F)cc2)NC(=O)[C@H](Cc2ccccc2)NC1=O [F-81, Dmt-c[D-Lys-Phe-p-CF3-Phe-Asp]NH2] (H-[Dmt][dK]F[Phe(4-CF3)]D-NH2; lactam 2-5) | 2.4 nM | 31.1 nM | 92.1±3.27% | 90.7±3.14% | 8.19 | 0.8±0.05 | inactive | 8.22 | 0.82±0.04 | 8.28 | inactive | > 1000 nM | – | 0.63±0.04 | 0.112 nM | 68 ± 1 % | 0.398 nM | 41% and 41 ± 15 % | Class (human MOP; CHO-hMOP, [35S]GTPγS binding): high efficacy partial agonist; agonist behaviour, β-arrestin 2 recruitment (in words) ([3]; PathHunter, compared to EM-1): low efficacy partial agonist; higher potency than the reference EM-2 (human recombinant MOP; calcium mobilization assay, MOP, ref [44],[45]): 2 fold; receptor/β-arrestin interaction (in words) (MOP/β-arrestin 2; BRET, ref [44]): did not promote receptor/β-arrestin interaction |
